Experimental data taken from a compilation of properties of binary mixtures (doi:10.1021/acs.jced.0c00588).

Assay: xn = mol fraction of the nth substance listed
Conditions: 102 kPa

O=C(O)C(F)(F)C(F)(F)C(F)(F)C(F)(F)F + CC[n+]1ccn(C)c1.[Cl-]
viscosity [mPa·s]
Conditions	x2 = 0.3346	x2 = 0.5026	x2 = 0.6636
293.15 K	35.2	92.1	–
298.15 K	29	72.1	213.4
303.15 K	–	57.4	158.1
308.15 K	20.4	46.4	119.8
313.15 K	–	38.2	92.7
318.15 K	14.99	–	73
323.15 K	13.02	–	58.4
328.15 K	11.4	22.58	47.5
333.15 K	10.04	–	–
338.15 K	–	–	32.6
343.15 K	7.94	14.53	27.5
348.15 K	7.13	–	23.56
353.15 K	–	11.25	20.29
